Results reported in patent US20050026952A1, “Nicotinamide derivatives useful as PDE4 inhibitors” (Pfizer Inc, priority 2003, published 2005).

test system: TNFα release from human peripheral blood mononuclear cells; test: Inhibition of LPS-stimulated TNFα release from human peripheral blood mononuclear cells (TNFα screen); assay type: cell-based; details: human PBMC, LPS stimulation, 18 hours incubation, TNFα in supernatant by ELISA
Description: Venous blood is collected from healthy volunteers and the mononuclear cells purified by centrifugation through Histopaque (Ficoll) cushions. TNFα production from these cells is stimulated by addition of lipopolysaccharide. After 18 hours incubation in the presence of LPS, the cell supernatant is removed and the concentration of TNFα in the supernatant determined by ELISA. Addition of PDE4 inhibitors reduces the amount of TNFα produced. An IC50 is determined which is equal to the concentration of compound that gives 50% inhibition of TNFα production as compared to the LPS stimulated control wells.

Row | IC50 | Compound
1 | 0.07 nM | CSc1cccc(Oc2ncc(F)cc2C(=O)N[C@H]2CC[C@@H](NS(=O)(=O)c3cccc4cccnc34)CC2)c1 [Example 11, Syn-5-Fluoro-2-(3-methylsulphanyl-phenoxy)-N-[4-(quinoline-8-sulphonylamino)-cyclohexyl]-nicotinamide]
2 | 0.3 nM | CSc1cccc(Oc2ncc(F)cc2C(=O)N[C@H]2CC[C@@H](NS(=O)(=O)c3cccc4nonc34)CC2)c1 [Example 12, Syn-N-[4-(Benzo[1,2,5]oxadiazole-4-sulphonylamino)-cyclohexyl]-5-fluoro-2-(3-methylsulphanyl-phenoxy)-nicotinamide]
3 | 0.09 nM | CSc1cccc(Oc2ncc(F)cc2C(=O)N[C@H]2CC[C@@H](NS(=O)(=O)c3cccc4nsnc34)CC2)c1 [Example 13, Syn-N-[4-(Benzo[1,2,5]thiadiazole-4-sulphonylamino)-cyclohexyl]-5-fluoro-2-(3-methylsulphanyl-phenoxy)-nicotinamide]
4 | 2 nM | CSc1cccc(Oc2ncc(F)cc2C(=O)N[C@H]2CC[C@@H](NS(=O)(=O)c3ccc(C)cc3O)CC2)c1 [Example 15, Syn-5-Fluoro-N-[4-(2-hydroxy-4-methyl-benzenesulphonylamino)-cyclohexyl]-2-(3-methylsulphanyl-phenoxy)-nicotinamide]

The remaining lines, values behind:

Row | Compound | IC50
5 | CSc1cccc(Oc2ncc(F)cc2C(=O)N[C@H]2CC[C@@H](NS(=O)(=O)c3c(O)ccc4nsnc34)CC2)c1 [Example 14] | 1 nM
6 | CSc1cc(Oc2ncc(F)cc2C(=O)N[C@H]2CC[C@@H](NS(=O)(=O)c3cc(C)ccc3O)CC2)ccc1F [Example 16, Syn-5-Fluoro-N-[4-(2-hydroxy-5-methyl-benzenesulphonylamino)-cyclohexyl]-2-(4-fluoro-3-methylsulphanyl-Phenoxy)-nicotinamide] | 3.5 nM
